Calls of active or inactive are those of the source. The calls are words filed in the database; no cut-off is given here. Peptide text beside a SMILES is read from it.
Experiments:
[1] = Solubility of compound in water at 1 nmol by RP-HPLC analysis; assay type: physicochemical; details: buffer
[2] = tested on: Escherichia coli; experiment: Antimicrobial activity against Escherichia coli G2b assessed as lethal concentration; assay type: functional
[3] = tested on: Streptococcus mutans; experiment: Antimicrobial activity against Streptococcus mutans ATCC 1.2499 at 1 nmol relative to control; assay type: functional, organism-based
[4] = tested on: Pseudomonas aeruginosa; experiment: Antimicrobial activity against Pseudomonas aeruginosa 11082616 assessed as lethal concentration; assay type: functional
[5] = tested on: Pseudomonas aeruginosa; experiment: Antimicrobial activity against Pseudomonas aeruginosa 11092618 assessed as lethal concentration; assay type: functional
[6] = tested on: Pseudomonas aeruginosa; experiment: Antimicrobial activity against Pseudomonas aeruginosa QT1 assessed as lethal concentration; assay type: functional
[7] = tested on: HEK293; experiment: Cytotoxicity against HEK293 cells assessed as reduction in cell viability at 200 microg/ml incubated for 48 hrs by CCK-8 assay; assay type: toxicity, cell-based; details: human, hek293, 48 h, dose 200 µg/ml
[8] = tested on: Streptococcus mutans; experiment: Antimicrobial activity against Streptococcus mutans ATCC 1.2499 assessed as lethal concentration; assay type: functional
[9] = tested on: Pseudomonas aeruginosa; experiment: Antimicrobial activity against Pseudomonas aeruginosa 374 assessed as lethal concentration; assay type: functional
[10] = tested on: Escherichia coli; experiment: Antimicrobial activity against Escherichia coli J45b assessed as lethal concentration; assay type: functional
[11] = tested on: Cell membrane; experiment: Induction of cytoplasmic membrane disruption in Bacillus megaterium assessed as increase in fluorescence intensity by NPN uptake assay; assay type: cell membranes; details: Priestia megaterium
[12] = tested on: Pseudomonas aeruginosa; experiment: Antimicrobial activity against Pseudomonas aeruginosa 11082603 assessed as lethal concentration; assay type: functional
[13] = tested on: Ralstonia solanacearum; experiment: Antimicrobial activity against Ralstonia solanacearum assessed as lethal concentration; assay type: functional
[14] = tested on: Salmonella enterica; experiment: Antimicrobial activity against Salmonella enterica ATCC 14028 at 0.25 to 1 nmol; assay type: functional, organism-based; details: dose 0.25-1 nmol
[15] = tested on: Staphylococcus epidermidis; experiment: Antimicrobial activity against penicillin-resistant Staphylococcus epidermidis P1389 assessed as lethal concentration; assay type: functional
[16] = tested on: Micrococcus luteus; experiment: Antimicrobial activity against Micrococcus luteus in presence of human serum; assay type: functional, organism-based
[17] = tested on: Komagataella pastoris; experiment: Antifungal activity against Pichia pastoris X33 assessed as lethal concentration; assay type: functional
[18] = tested on: Streptococcus sanguinis; experiment: Antimicrobial activity against Streptococcus sanguinis ATCC 1.2497 assessed as lethal concentration; assay type: functional
[19] = tested on: Alcaligenes faecalis; experiment: Antimicrobial activity against Alcaligenes faecalis CGMCC 1.1837 assessed as lethal concentration; assay type: functional
[20] = tested on: Streptococcus salivarius; experiment: Antimicrobial activity against Streptococcus salivarius ATCC 1.2498 assessed as lethal concentration; assay type: functional
[21] = Stability of compound in PBS at pH 7 measured after 3 days; assay type: physicochemical; details: buffer, pH 7, 72 h; time 3 day
[22] = tested on: Staphylococcus; experiment: Antimicrobial activity against methicillin-resistant coagulase negative Staphylococcus P1369 assessed as lethal concentration; assay type: functional
[23] = Solubility of compound in guanidine hydrochloride at 1 mg/ml by RP-HPLC analysis; assay type: physicochemical
[24] = tested on: Pseudomonas aeruginosa; experiment: Antimicrobial activity against Pseudomonas aeruginosa 11092304 assessed as lethal concentration; assay type: functional
[25] = tested on: Staphylococcus warneri; experiment: Antimicrobial activity against Staphylococcus warneri ATCC 1.2824 assessed as lethal concentration; assay type: functional
[26] = tested on: Cell membrane; experiment: Induction of membrane disruption in Staphylococcus epidermidis incubated for 30 mins by transmission electron microscopic analysis; assay type: cell membranes
[27] = tested on: Cell membrane; experiment: Induction of membrane disruption in Staphylococcus epidermidis incubated for 90 mins by SEM analysis; assay type: cell membranes
[28] = tested on: Staphylococcus aureus; experiment: Antimicrobial activity against methicillin-resistant Staphylococcus aureus P1374 assessed as lethal concentration; assay type: functional
[29] = tested on: Stenotrophomonas maltophilia; experiment: Antimicrobial activity against Stenotrophomonas maltophilia CGMCC 1.1788 assessed as lethal concentration; assay type: functional
[30] = Retention time of the compound by RP-HPLC analysis; assay type: physicochemical
[31] = tested on: Curtobacterium luteum; experiment: Antimicrobial activity against Curtobacterium luteum assessed as lethal concentration; assay type: functional
[32] = tested on: Escherichia coli; experiment: Antimicrobial activity against Escherichia coli J14b assessed as lethal concentration; assay type: functional
[33] = tested on: Pseudomonas aeruginosa; experiment: Antimicrobial activity against Pseudomonas aeruginosa FRD1 assessed as lethal concentration; assay type: functional
[34] = tested on: Staphylococcus aureus; experiment: Antimicrobial activity against methicillin-resistant Staphylococcus aureus P1386 assessed as lethal concentration; assay type: functional
[35] = tested on: Lysinibacillus fusiformis; experiment: Antimicrobial activity against Lysinibacillus fusiformis assessed as lethal concentration; assay type: functional
[36] = tested on: Bacillus subtilis; experiment: Antimicrobial activity against Bacillus subtilis CGMCC 1.2428 assessed as lethal concentration; assay type: functional
[37] = tested on: Staphylococcus aureus; experiment: Antimicrobial activity against penicillin-resistant Staphylococcus aureus P1383 assessed as lethal concentration; assay type: functional
[38] = tested on: Micrococcus luteus; experiment: Antimicrobial activity against Micrococcus luteus in presence of NaCl; assay type: functional, organism-based
[39] = tested on: Priestia megaterium; experiment: Antimicrobial activity against Bacillus megaterium CGMCC 1.0459 assessed as lethal concentration; assay type: functional
[40] = tested on: Staphylococcus; experiment: Antimicrobial activity against methicillin-resistant coagulase negative Staphylococcus P1369 at 0.25 to 1 nmol; assay type: functional, organism-based; details: dose 0.25-1 nmol
[41] = tested on: Staphylococcus aureus; experiment: Antimicrobial activity against Staphylococcus aureus J685 assessed as lethal concentration; assay type: functional
[42] = tested on: Micrococcus luteus; experiment: Antimicrobial activity against Micrococcus luteus CGMCC 1.0290 assessed as lethal concentration; assay type: functional
[43] = tested on: Geotrichum candidum; experiment: Antifungal activity against Geotrichum candidum CCTCC AY 93038 assessed as lethal concentration; assay type: functional
[44] = tested on: Cell membrane; experiment: Disruption of outer membrane integrity in […] by NPN uptake assay; assay type: cell membranes
[45] = tested on: Erythrocyte; experiment: Hemolytic activity in mouse erythrocytes assessed as hemolysis at 100 uM; assay type: toxicity, cell-based
[46] = tested on: Pseudomonas aeruginosa; experiment: Antimicrobial activity against Pseudomonas aeruginosa O1 assessed as lethal concentration; assay type: functional
[47] = tested on: Salmonella enterica; experiment: Antimicrobial activity against Salmonella enterica ATCC 14028 assessed as lethal concentration; assay type: functional
[48] = tested on: Escherichia coli; experiment: Antimicrobial activity against Escherichia coli DH5alpha assessed as lethal concentration; assay type: functional
[49] = tested on: Pseudomonas aeruginosa; experiment: Antimicrobial activity against Pseudomonas aeruginosa DH assessed as lethal concentration; assay type: functional
[50] = tested on: Escherichia coli; experiment: Antimicrobial activity against Escherichia coli J16c assessed as lethal concentration; assay type: functional
[51] = tested on: Pseudomonas aeruginosa; experiment: Antimicrobial activity against Pseudomonas aeruginosa assessed as lethal concentration; assay type: functional
[52] = tested on: Escherichia coli; experiment: Antimicrobial activity against Escherichia coli J23a assessed as lethal concentration; assay type: functional

With CC[C@H](C)[C@H](NC(=O)[C@H](CCCCN)NC(=O)[C@H](CC(N)=O)NC(=O)[C@H](CC(N)=O)NC(=O)[C@H](CS)NC(=O)[C@H](Cc1ccc(O)cc1)NC(=O)[C@H](CS)NC(=O)[C@@H](NC(=O)[C@H](C)N)[C@@H](C)O)C(=O)N[C@@H](CS)C(=O)N[C@H](C(=O)N[C@@H](CS)C(=O)N[C@@H](CCCNC(=N)N)C(=O)N[C@@H](CCCNC(=N)N)C(N)=O)C(C)C (H-ATCYCNNKICVCRR-NH2) the solubility [1] was “Soluble”, the LD [2] was 12.9 µM and the Activity [3] was “inactive”. For the same molecule, the LD [4] was 35.1 µM, the LD [5] was 75.89 µM and the LD [6] was 22.87 µM. The Activity [7] was “Non-Toxic”, the LD [8] was 3.22 µM and the LD [9] was 35.1 µM. For the same molecule, the LD [10] was 7.14 µM, the Activity [11] was “Active” and the LD [12] was 15.38 µM. The LD [13] was 17.5 µM, the Activity [14] was “Active” and the LD [15] was 12.79 µM. For the same molecule, the Activity [16] was “Active”, the LD [17] was 7.86 µM and the LD [18] was 2.58 µM. For the same molecule, the LD [19] was 10.4 µM, the LD [20] was 2.51 µM and the Stability [21] was “Stable”. The LD [22] was 0.27 µM, the solubility [23] was “Soluble” and the LD [24] was 43.43 µM. The LD [25] was 4.17 µM, the Activity [26] was “Active” and the Activity [27] was “Active”. For the same molecule, the LD [28] was 4.62 µM, the LD [29] was 21.72 µM and the Retention_time [30] was 14.5 min. It also gave an LD [31] of 0.87 µM, an LD [32] of 12.9 µM and an LD [33] of 21.95 µM. For the same molecule, the LD [34] was 3.46 µM, the LD [35] was 0.63 µM and the LD [36] was 2.6 µM. For the same molecule, the LD [37] was 1.17 µM, the Activity [38] was “Active” and the LD [39] was 1.23 µM. For the same molecule, the Activity [40] was “Active”, the LD [41] was 7.01 µM and the LD [42] was 2.6 µM. The LD [43] was 9.62 µM, the Activity [44] was “Active” and the Activity [45] was “Non-Toxic”. The LD [46] was 21.42 µM, the LD [47] was 4.88 µM and the LD [48] was 21.42 µM. The LD [49] was 49.32 µM, the LD [50] was 7.86 µM and the LD [51] was 7.32 µM. It also gave an LD [52] of 7.86 µM.

Source: ChEMBL document CHEMBL5528052, “Single Deletion Unmasks Hidden Anti-Gram-Negative Bacterial Activity of an Insect Defensin-Derived Peptide” (J Med Chem, 2024)
